Values joined by “and” are separate entries in the source; they are usually repeats but may differ in a detail not shown here. Equal values may be shown once.
T1: GmSAMT1 (Glycine max, UniProt B5A7G5)
T1 sequence (B5A7G5 1-370): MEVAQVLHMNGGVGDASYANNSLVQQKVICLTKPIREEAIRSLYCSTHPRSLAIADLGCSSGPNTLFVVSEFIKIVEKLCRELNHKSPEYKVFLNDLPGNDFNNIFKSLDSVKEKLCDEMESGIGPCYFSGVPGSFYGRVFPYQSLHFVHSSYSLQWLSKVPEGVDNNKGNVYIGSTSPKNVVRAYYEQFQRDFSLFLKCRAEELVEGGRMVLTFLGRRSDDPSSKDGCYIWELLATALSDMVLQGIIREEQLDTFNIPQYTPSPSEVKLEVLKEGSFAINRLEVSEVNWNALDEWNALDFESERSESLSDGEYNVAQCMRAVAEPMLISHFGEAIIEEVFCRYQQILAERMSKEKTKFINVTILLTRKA

B1: GmSAMT1 (Glycine max) (protein)
chain: T1 sequence (B5A7G5 1-370)
B2: GmSABP2-1: soybean methyl salicylate esterase gene (SEQ ID NO: 2), over-expressed in transgenic hairy roots (nucleic acid)
DNA: ATGGGTTCACAAAATTGTATGGATAGGAAGCACTATGTTCTGGTGCATGGGGCATGCCATGGAGCTTGGTGTTGGTATAAGCTCAAGCCACGCTTGGAATCTGCAGGCCATAAGGTCACAGTACTTGACCTTGCAGCTTCTGGAACCAACATGAAGAAAATTGAAGATGTTGATACTTTCTCAGAGTATTCTGCGCCTTTGTTGCAGCTAATGGCCACAATTCCCTCAAATGAGAAGTTAGTTCTAGTTGGTCACAGCCTTGGAGGGCTGAACATAGCACTTGCAATGGAGAAATTCCCAGAAAAGGTAGCAGTTGGTGTTTTCTTAACAGCTTTTGCTCCAGACACTGAACACCACCCATCTTATGTCTTGGAAAAGTACAATGAGAGGACCCCGTTAGCTGCATGGTTAGACACTGAATTTGCTCCAAGCGGAAACAAAACATCAATGTTCTTCGGCCCCAACTTCTTGTCCGACAAGCTCTACCAACTGTCCCCTATTGAGGACTTGGAATTGGCCAAGACTTTAGCAAGGCCATCATCGCTCTTCATGGAAGACTTGACTAAACAAAAGAACTTCTCCAAAGAGGGATATGGGTCAGTTCCACGTGCCTTTATTGTTTGCACGGAGGACCTTGGAATTCCATTGGAATATCAGCTCTTGATGATCCAAAATGTTGGGTTCAATGACGTTGTAGAGGTCAAAGACGCAGATCATATGGTTATGCTTTGCAAGCCACAAGAACTATTCGATTCCCTCCAGCAGATAGCGACTAAATATGCATGA
modifications: Glycine Max

Molecular target: T1, GmSAMT1
Experiment: Effects of metal ions on activity of GmSAMT1
Format: biochemical, soybean
Details: chloride salts at 5 mM final concentration; control without metal ion set at 1.0
Experimental: (§1) A 50 μl volume containing 50 mM Tris-HCl, pH 7.5, 1 mM SA, and 3 μM ^14C-SAM with a specific activity of 51.4 mCi/mmol (Perkin-Elmer, Boston, Mass.) was used. The assay was initiated by addition of SAM, maintained at 25° C. for 30 min, and stopped by the addition of ethyl acetate (150 μl). After phase separation by 1 min centrifugation at 14,000 g, the upper organic phase was counted using a liquid scintillation counter (Beckman Coulter, Fullerton, Calif.). The radiation counts in the organic phase indicated the amount of synthesized MeSA. Substrate specificity assay was also performed for recombinant GmSAMT1, with a range of substrates including SA, benzoic acid, anthranilic acid, 3-hydroxybenzoic acid, 4-hydroxybenzoic acid, nicotinic acid, p-coumaric acid, caffeic acid, cinnamic acid, vanallic acid, jasmonic acid (JA), gibberellic acid, indole-3-acetic acid, and 2,4-dichlorophenoxyacetic acid. The activity with SA was set at 100%. Three independent assays were performed for each compound.
Appropriate enzyme concentrations and incubation time were determined in time course assays to make sure that the reaction velocity was linear during the assay period. Lineweaver-Burk plots yielded apparent Km values. To determine the Km for SA, concentrations of SA were independently varied from 2 to 150 μM, while SAM was held constant at 200 μM. Assays were conducted at 25° C. for 30 min, as described in SAMT activity assay. The optimal pH for GmSAMT1 was assayed from pH 6.0 to pH 9.0, and optimal reaction of temperature was assayed ranging from 0° C. to 60° C. Effects of metal ions on activity of GmSAMT1 were assayed with a range of metal ions, including K^+, Cu^2+, Zn^2+, Fe^2+, Fe^3+, Mn^2+, Ca^2+, Na^+, NH4^+, and Mg^2+, in the form of chloride salts at 5 mM final concentrations.

Which “effect of metal ion on GmSAMT1 activity compared with control” value (“effect … compared with control” for short) does the source give for `[Ca+2].[Cl-].[Cl-]` [Ca^2+] here?
Its value is “moderately inhibited”.

Which “effect … compared with control” value does the source give for `[Cl][Cu][Cl]` [Cu^2+] here?
The value was “no activity”.

`[Cl][Fe][Cl]` [Fe^2+] was tested. Which “effect … compared with control” value did it give?
The value was “no activity”.

For `[Cl-].[K+]` [K], which “effect … compared with control” value is on record?
Its value is “double activity”.

`[Cl-].[Cl-].[Mg+2]` [Mg^2+] was tested. Which “effect … compared with control” value did it give?
Its value is “minimal effect”.

For `[Cl][Mn][Cl]` [Mn^2+], which “effect … compared with control” value is on record?
Its value is “moderately inhibited”.

How did the “effect … compared with control” value turn out when `Cl.N` [NH4^+] was run?
The value was “minimal effect”.

How did the “effect … compared with control” value turn out when `[Cl-].[Na+]` [Na^+] was run?
The value was “minimal effect”.

How did the “effect … compared with control” value turn out when `[Cl-].[Cl-].[Zn+2]` [Zn^2+] was run?
The value was “no activity”.

Substrate: O=C(O)c1ccccc1O
Experiment: Determination of kinetic parameters of GmSAMT1 (Lineweaver-Burk)
Format: biochemical, soybean
Details: other: SA varied 2 to 150 μM, SAM 200 μM, 25° C., 30 min
Experimental: as §1
Appropriate enzyme concentrations and incubation time were determined in time course assays to make sure that the reaction velocity was linear during the assay period. Lineweaver-Burk plots yielded apparent Km values. To determine the Km for SA, concentrations of SA were independently varied from 2 to 150 μM, while SAM was held constant at 200 μM. […]

B1 was tested. Which Km did it give?
Its Km is 32.9 ± 1.7 µM and 46.2 ± 4.2 µM.

Molecular target: T1, GmSAMT1
Experiment: Radiochemical SAMT activity assay, substrate specificity of recombinant GmSAMT1
Format: biochemical, soybean
Details: all substrates at 1 mM; activity with salicylic acid set at 100%; average of three measurements
Experimental: as §1

For `O=C(O)COc1ccc(Cl)cc1Cl` [2,4-Dichlorophenoxyacetic acid, 2,4-dichlorophenoxyacetic acid], which “Relative activity of GmSAMT1 with substrate” value (“Relative activity of GmSAMT1” for short) is on record?
Its value is 0%.

For `O=C(O)c1cccc(O)c1` [3-Hydroxybenzoic acid, 3-hydroxybenzoic acid], which “Relative activity of GmSAMT1” value is on record?
The value was 1.8%.

Which “Relative activity of GmSAMT1” value does the source give for `O=C(O)c1ccc(O)cc1` [4-Hydroxybenzoic acid, 4-hydroxybenzoic acid] here?
Its value is 0%.

With `Nc1ccccc1C(=O)O` [Anthranilic acid, anthranilic acid] as the molecule, how does the “Relative activity of GmSAMT1” value read?
Its value is 9.3%.

How did the “Relative activity of GmSAMT1” value turn out when `O=C(O)c1ccccc1` [Benzoic acid, benzoic acid] was run?
The value was 16.9%.

With `O=C(O)/C=C/c1ccc(O)c(O)c1` [Caffeic acid, caffeic acid] as the molecule, how does the “Relative activity of GmSAMT1” value read?
The value was 0%.

With `O=C(O)C=Cc1ccccc1` [Cinnamic acid, cinnamic acid] as the molecule, how does the “Relative activity of GmSAMT1” value read?
The value was 0%.

`C=C1C[C@]23C[C@@]1(O)CC[C@H]2[C@@]12C=C[C@H](O)[C@@](C)(C(=O)O1)[C@H]2[C@@H]3C(=O)O` [Gibberellic acid, gibberellic acid] was tested. Which “Relative activity of GmSAMT1” value did it give?
Its value is 0%.

For `O=C(O)Cc1c[nH]c2ccccc12` [Indole-3-acetic acid, indole-3-acetic acid], which “Relative activity of GmSAMT1” value is on record?
Its value is 0%.

`CC/C=C\C[C@H]1C(=O)CC[C@@H]1CC(=O)O` [Jasmonic acid, jasmonic acid] was tested. Which “Relative activity of GmSAMT1” value did it give?
Its value is 0%.

For `O=C(O)c1cccnc1` [Nicotinic acid, nicotinic acid], which “Relative activity of GmSAMT1” value is on record?
Its value is 0%.

For `O=C(O)c1ccccc1O` [Salicylic acid, salicylic acid], which “Relative activity of GmSAMT1” value is on record?
The value was 100%.

With `COc1cc(C(=O)O)ccc1O` [Vanallic acid, vanallic acid] as the molecule, how does the “Relative activity of GmSAMT1” value read?
The value was 0%.

For `O=C(O)/C=C/c1ccc(O)cc1` [p-Coumaric acid, p-coumaric acid], which “Relative activity of GmSAMT1” value is on record?
Its value is 0%.

Same assay, conditions: all substrates at 1 mM; activity with salicylic acid set at 100%; average of three measurements; listed as JA

`CC/C=C\C[C@H]1C(=O)CC[C@@H]1CC(=O)O` [Jasmonic acid, jasmonic acid] was tested. Which “Relative activity of GmSAMT1” value did it give?
The value was “no activity was detected”.

Same assay, conditions: all substrates at 1 mM; activity with salicylic acid set at 100%; average of three measurements; listed as gibberellic acid

For `C=C1C[C@]23C[C@@]1(O)CC[C@H]2[C@@]12C=C[C@H](O)[C@@](C)(C(=O)O1)[C@H]2[C@@H]3C(=O)O` [Gibberellic acid, gibberellic acid], which “Relative activity of GmSAMT1” value is on record?
The value was “no activity was detected”.

Same assay, conditions: all substrates at 1 mM; activity with salicylic acid set at 100%; average of three measurements; listed as indole-3-acetic acid

`O=C(O)Cc1c[nH]c2ccccc12` [Indole-3-acetic acid, indole-3-acetic acid] was tested. Which “Relative activity of GmSAMT1” value did it give?
The value was “no activity was detected”.

Tested on: SCN race 2
Experiment: Nematode infection and demographics assay in transgenic soybean hairy roots
Format: in vivo, Heterodera glycines
Details: TN02-275 background; susceptibility of vector control in susceptible background set at 100%
Description: The soybean hairy root transformation system by infection with A. rhizogenes harboring the target genes were modified and used to study soybean resistance against SCN. A. rhizogenes K599 harboring the target gene, vector control and A. rhizogenes K599 alone were used to inoculate the TN02-275 soybeans, which are susceptible to SCN race 2. To better evaluate the resistance of the target gene, A. rhizogenes harboring the vector control and A. rhizogenes K599 alone were also used to inoculate the TN02-226 soybeans, which are resistant to SCN race 2. Generation of soybean hairy roots was modified as follows: First, soybean seeds were sterilized with chlorine gas. Second, a single layer of mature soybean seeds with intact seed coats were placed in open Petri dish, which was put in a bell jar desiccator within a fume hood. A beaker with 100 ml bleach was also placed in the desiccator and added 5 ml concentrated (12N) HCl along the side of the beaker. Then the seeds were kept in the closed desiccator immediately and maintained in the chlorine gas atmosphere overnight (about 16 h). After sterilization, seeds were transferred to the autoclaved filter paper moistened with sterilized distilled water in the Petri dishes for germination in a laminar flow hood. The germinated soybean seeds were sowed in sterilized vermiculite and six seeds were grown in each cell of 18-cell germination tray. The overnight cultured bacteria lawn of A. rhizogenes K599 with binary vector pJL-OFP, pJL-OFP-35S::GUS or pJL-OFP-35S::GmSAMT1 from LB medium plate containing […] kanamycin, or a culture of A. rhizogenes K599 lacking the binary vector grown in LB medium without any antibiotics was collected and suspended in 1 ml of sterile distilled water, respectively. Soybean cotyledonary nodes and upper hypocotyls of 5-day-old seedlings with unfolded cotyledons were stabbed three times by the syringe containing the bacterial suspension. In the first week, the trays were covered with the sterile transparent lids to retain high humidity. In the subsequent three weeks, plants were transferred into pots and the A. rhizogenes wounding sites were covered by wet sterile vermiculite to continually keep high humidity. Each day soybean plants were watered using sterile B&D solution containing 1 mM CaCl2, 0.5 mM KH2PO4, 10 μM Fe-citrate, 0.25 mM MgSO4, 0.25 mM K2SO4, 1 μM MnSO4, 2 μM H3BO4, 0.5 μM ZnSO4, 2 μM CuSO4, 0.1 μM CoSO4, 0.1 μM Na2MoO4, and 1 mM KNO3. The growth conditions for soybean plants were 12 h light/12 h dark at 28° C./25° C. with irradiance from fluorescent bulbs at 150-200 μmol m^−2·s^−1. After about four weeks, the hairy roots grew to approximately 10 cm in length. Soybean transgenic roots were detected based on OFP expression, using a fluorescence stereomicroscope (Olympus SZX12 fluorescence microscope and OFP filter). The tap root and non-transgenic roots were excised under the wounding site. Transgenic roots harboring pJL-OFP-35S::GUS screened by OFP signal were immersed in GUS solution (1 mM X-Gluc), 0.5 mM potassium ferrocyanide, 0.1% (v/v) TRITON™ X-100, 100 mM sodium phosphate buffer pH 7.0), and incubated at 37° C. overnight. In the following day, the X-Gluc solution was discarded. The roots were washed repeatedly with 70% ethanol to remove chlorophyll. Transgenic roots with visual GUS stain were recorded.
To easily compare the SCN infection, one transgenic root was left for the SCN inoculation. […]

Which reduction of susceptibility does the source give for B2 here?
Its reduction of susceptibility is 84.5%.

Reference: patent US20140366219A1, “Increasing Soybean Defense Against Pests” (priority 2011, published 2014)
